According to patent US20240116985A1, “STAPLED PEPTIDES AND METHODS THEREOF” (priority 2020, published 2024):
pIC50: −log10 of the molar value. Values after ≈ are worked out from the molar mass of the structure shown. Where two headings read alike, the source gives them in different places.

Columns and labels:
CHI Log D procedure = format: physicochemical
Solubility in PBS = format: physicochemical
Outline: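 Read-out is the HPLC peak area of the supernatant from ultracentrifuged PBS solution, scaled against a 50 μM peptide DMSO injection; value reported as [(PBS area)/(DMSO area)]*50 uM.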

[1] = biological target: T1, full-length beta-Catenin (Uniprot ID P35222) (Homo sapiens, UniProt P35222); assay: Fluorescence polarization IC50 (beta-catenin / 5FAM-TCF4 10-53 competition); format: binding
T1 construct: 10 nM full-length beta-Catenin (Uniprot ID P35222)
T1 sequence (P35222 1-781): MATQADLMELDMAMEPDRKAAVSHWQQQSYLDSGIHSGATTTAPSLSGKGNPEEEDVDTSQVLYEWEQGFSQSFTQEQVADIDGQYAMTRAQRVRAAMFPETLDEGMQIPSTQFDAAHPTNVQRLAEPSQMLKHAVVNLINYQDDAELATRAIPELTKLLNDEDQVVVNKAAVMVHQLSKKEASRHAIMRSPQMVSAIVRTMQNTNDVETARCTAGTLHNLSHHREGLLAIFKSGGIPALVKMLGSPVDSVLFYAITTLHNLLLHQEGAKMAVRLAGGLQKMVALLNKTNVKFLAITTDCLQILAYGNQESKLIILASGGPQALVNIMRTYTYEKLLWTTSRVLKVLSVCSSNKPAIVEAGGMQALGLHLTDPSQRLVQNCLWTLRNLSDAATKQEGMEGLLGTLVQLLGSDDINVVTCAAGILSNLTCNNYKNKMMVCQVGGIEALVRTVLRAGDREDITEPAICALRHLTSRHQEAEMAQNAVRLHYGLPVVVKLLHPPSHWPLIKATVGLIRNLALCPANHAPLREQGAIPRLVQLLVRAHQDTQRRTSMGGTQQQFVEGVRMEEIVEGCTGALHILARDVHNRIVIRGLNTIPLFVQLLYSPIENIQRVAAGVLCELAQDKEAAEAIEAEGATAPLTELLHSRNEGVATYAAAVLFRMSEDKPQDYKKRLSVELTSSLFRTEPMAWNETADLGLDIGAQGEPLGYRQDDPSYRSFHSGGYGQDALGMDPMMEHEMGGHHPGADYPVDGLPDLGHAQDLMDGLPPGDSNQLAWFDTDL

[2] = fluorescence polarization, read-out: beta-Catenin FP IC50
[3] = fluorescence polarization, beta-catenin, read-out: FP EC50

Row | Compound | CHI Log D (CHI Log D procedure; pH 7.4) | Solubility (Solubility in PBS) [µM] | pIC50 [1, 2] | pIC50 ([1]; read-out: FP EC50) | pIC50 [1, 3] | pIC50 ([1]; read-out: beta-Catenin FP IC50) | chromatographic logD (CHI Log D procedure; pH 7.4, CHI Log D) | Solubility (Solubility in PBS; Solubility (uM)) [µM] | chromatographic logD (CHI Log D procedure; pH 7.4) | IC50 ([1]; FP EC50 (nM), fluorescence polarization, beta-catenin) [nM]
1 | CC(=O)N1CCC[C@]12CC=CCCCC1(CCCC=CCCCCCC[C@@](C)(C(=O)N[C@@H](Cc3ccccc3)C(=O)N[C@@H](Cc3csc4ccccc34)C(=O)N[C@@H](Cc3c[nH]cn3)C(N)=O)NC(=O)[C@H]([C@@H](C)O)NC(=O)[C@H](Cc3ccccc3)NC(=O)[C@H](C)NC(=O)[C@H](C)NC(=O)[C@H](CCC(=O)O)NC(=O)[C@H](CC(=O)O)NC1=O)NC(=O)[C@H](CC(C)C)NC(=O)[C@H](CC(=O)O)NC2=O (stereo partly drawn) [I-618, Ac-PL3-Asp-Leu-B5-Asp-Glu-Ala-Ala-Phe-Thr-S8-Phe-BztA-His-NH2] | 2.617 | 10 (≈ 18.7 µg/mL) | 6.87 | 6.87 | – | – | – | – | – | –
2 | CCN(CC(=O)O)C[C@@H]1NC(=O)[C@H](CC(=O)O)NC(=O)C2(CCCC=CCCCOC(=O)N3CC[C@@](C(=O)N[C@@H](Cc4ccsc4)C(=O)N[C@@H](Cc4csc5ccccc45)C(=O)N[C@@H](CCC(N)=O)C(N)=O)(C3)NC(=O)[C@H](CC(C)C)NC(=O)[C@H](Cc3ccccc3)NC(=O)[C@H](C)NC(=O)[C@H](C)NC1=O)CCCC=CC[C@]1(CCCN1C(C)=O)C(=O)N[C@@H](CC(=O)O)C(=O)N[C@@H](CC(C)(C)C)C(=O)N2 (stereo partly drawn) [I-972, Ac-PL3-Asp-Npg-B5-Asp-EtGA-Ala-Ala-Phe-Leu-PyrS2-3Thi-BztA-Gln-NH2] | 1.879 | 30 (≈ 59.2 µg/mL) | – | – | 5.74 | 5.74 | – | – | – | –
3 | CCCC[C@@H]1NC(=O)[C@H](C)NC(=O)[C@H](C)NC(=O)[C@H](CCC(=O)O)NC(=O)[C@H](CC(=O)O)NC(=O)C2(CCCC=CCCCCCC[C@@](C)(C(=O)N[C@@H](Cc3ccccc3)C(=O)N[C@@H](Cc3csc4ccccc34)C(=O)N[C@@H](CCC(N)=O)C(N)=O)NC(=O)[C@H](CCC(N)=O)NC1=O)CCCC=CC[C@]1(CCCN1C(C)=O)C(=O)N[C@@H](CC(=O)O)C(=O)N[C@@H]([C@@H](C)CC)C(=O)N2 (stereo partly drawn) [I-728, Ac-PL3-Asp-Ile-B5-Asp-Glu-Ala-Ala-nLeu-Gln-S8-Phe-BztA-Gln-NH2] | – | – | 6.54 | – | – | – | 2.35 | 38 (≈ 70.3 µg/mL) | – | –
4 | CC(=O)N1CCC[C@]12CC=CCCCC1(CCCC=CCCCOC(=O)N3CC[C@@](C(=O)N[C@@H](Cc4ccsc4)C(=O)N[C@@H](Cc4csc5ccccc45)C(=O)N[C@@H](CCC(N)=O)C(N)=O)(C3)NC(=O)[C@H](CC(N)=O)NC(=O)[C@H](Cc3ccccc3)NC(=O)[C@H](C)NC(=O)[C@H](CCCCNC(=O)CN=[N+]=[N-])NC(=O)[C@H](CC(=O)O)NC(=O)[C@H](CC(=O)O)NC1=O)NC(=O)[C@H](CC(C)(C)C)NC(=O)[C@H](CC(=O)O)NC2=O (stereo partly drawn) [I-879, Ac-PL3-Asp-Npg-B5-Asp-Asp-[AzAc]Lys-Ala-Phe-Asn-PyrS2-3Thi-BztA-Gln-NH2] | – | 45 (≈ 92.6 µg/mL) | – | – | – | – | – | – | 2 | 6
5 | CC(=O)N1CCC[C@]12CC=CCCCC1(CCCC=CCCCCCC[C@@](C)(C(=O)N[C@@H](Cc3ccccc3)C(=O)N[C@@H](Cc3csc4ccccc34)C(=O)N[C@@H](Cc3c[nH]cn3)C(N)=O)NC(=O)[C@H](CC(N)=O)NC(=O)[C@H](Cc3ccccc3)NC(=O)[C@H](C)NC(=O)[C@H](C)NC(=O)[C@H](CC(=O)O)NC(=O)[C@H](CC(=O)O)NC1=O)NC(=O)[C@H](C)NC(=O)[C@H](CC(=O)O)NC2=O (stereo partly drawn) [I-466, Ac-PL3-Asp-Ala-B5-Asp-Asp-Ala-Ala-Phe-Asn-S8-Phe-BztA-His-NH2] | 2.069 | 50 (≈ 91.1 µg/mL) | 7.72 | 7.72 | – | – | – | – | – | –
6 | CC(=O)N1CCC[C@]12CC=CCCCC1(CCCC=CCCCCCC[C@@](C)(C(=O)N[C@@H](Cc3ccccc3)C(=O)N[C@@H](Cc3csc4ccccc34)C(=O)N[C@@H](CCC(N)=O)C(N)=O)NC(=O)[C@H](C(C)C)NC(=O)[C@H](Cc3ccccc3)NC(=O)[C@H](C)NC(=O)[C@H](C)NC(=O)[C@H](CC(=O)O)NC(=O)[C@H](CC(=O)NC(C)C)NC1=O)NC(=O)[C@H](C)NC(=O)[C@H](CC(=O)O)NC2=O (stereo partly drawn) [I-535, Ac-PL3-Asp-Ala-B5-[NHiPr]AsnR-Asp-Ala-Ala-Phe-Val-S8-Phe-BztA-Gln-NH2] | – | – | 5.30 | – | – | – | 2.86 | 47 (≈ 86.4 µg/mL) | – | –
7 | CC(=O)N1CCC[C@]12CC=CCCCC1(CCCC=CCCCCCC[C@@](C)(C(=O)N[C@@H](CCc3ccccc3)C(=O)N[C@@H](Cc3csc4ccccc34)C(=O)N[C@@H](CCC(N)=O)C(N)=O)NC(=O)[C@H](CC(N)=O)NC(=O)[C@H](Cc3ccccc3)NC(=O)[C@H](C)NC(=O)[C@H](C)NC(=O)[C@H](CCC(=O)O)NC(=O)[C@H](CC(=O)O)NC1=O)NC(=O)[C@H](C)NC(=O)[C@H](CC(=O)O)NC2=O (stereo partly drawn) [I-443, Ac-PL3-Asp-Ala-B5-Asp-Glu-Ala-Ala-Phe-Asn-S8-hPhe-BztA-Gln-NH2] | 2.128 | 50 (≈ 92.1 µg/mL) | 5.67 | 5.67 | – | – | – | – | – | –
8 | CC(=O)N1CCC[C@]12CC=CCCCC1(CCCC=CCCCOC(=O)N3CC[C@@](C(=O)N[C@@H](Cc4ccsc4)C(=O)N[C@@H](Cc4csc5ccccc45)C(=O)N[C@@H](CCO)C(N)=O)(C3)NC(=O)[C@H](CC(N)=O)NC(=O)[C@H](Cc3ccccc3)NC(=O)[C@H](C)NC(=O)[C@H](C)NC(=O)[C@H](CN(CC(=O)O)CC(F)(F)F)NC(=O)[C@H](CC(=O)O)NC1=O)NC(=O)[C@H](CC(C)(C)C)NC(=O)[C@H](CC(=O)O)NC2=O (stereo partly drawn) [I-950, Ac-PL3-Asp-Npg-B5-Asp-TfeGA-Ala-Ala-Phe-Asn-PyrS2-3Thi-BztA-Hse-NH2] | 1.9 | 46 (≈ 92.1 µg/mL) | – | – | 5.79 | 5.79 | – | – | – | –
9 | CC(=O)N1CCC[C@]12CC=CCCCC1(CCCC=CCCCCCC[C@@](C)(C(=O)N[C@@H](Cc3cccc(F)c3)C(=O)N[C@@H](Cc3csc4ccccc34)C(=O)N[C@@H](CCC(N)=O)C(N)=O)NC(=O)[C@H](CCC(N)=O)NC(=O)[C@H](Cc3ccsc3)NC(=O)[C@H](C)NC(=O)[C@H](C)NC(=O)[C@H](CCC(=O)O)NC(=O)[C@H](CC(=O)O)NC1=O)NC(=O)[C@H](C)NC(=O)[C@H](CC(=O)O)NC2=O (stereo partly drawn) [I-429, Ac-PL3-Asp-Ala-B5-Asp-Glu-Ala-Ala-3Thi-Gln-S8-3FF-BztA-Gln-NH2] | – | 50 (≈ 93.3 µg/mL) | 6.84 | – | – | – | 2.07 | – | – | –
10 | CCN(CC(=O)O)C[C@@H]1NC(=O)[C@H](CC(=O)O)NC(=O)C2(CCCC=CCCCOC(=O)N3CC[C@@](C(=O)N[C@@H](Cc4ccsc4)C(=O)N[C@@H](Cc4csc5ccccc45)C(=O)N[C@@H](CCC(N)=O)C(N)=O)(C3)NC(=O)[C@H]([C@@H](C)O)NC(=O)[C@H](Cc3ccccc3)NC(=O)[C@H](C)NC(=O)[C@H](C)NC1=O)CCCC=CC[C@]1(CCCN1C(C)=O)C(=O)N[C@@H](CC(=O)O)C(=O)N[C@@H](CC(C)(C)C)C(=O)N2 (stereo partly drawn) [I-969, Ac-PL3-Asp-Npg-B5-Asp-EtGA-Ala-Ala-Phe-Thr-PyrS2-3Thi-BztA-Gln-NH2] | 1.851 | 46 (≈ 90.3 µg/mL) | – | – | 5.63 | 5.63 | – | – | – | –
11 | CC(=O)N1CCC[C@]12CC=CCCCC1(CCCC=CCCCOC(=O)N3CC[C@@](C(=O)N[C@@H](Cc4ccsc4)C(=O)N[C@@H](Cc4csc5ccccc45)C(=O)N[C@@H](Cc4c[nH]cn4)C(N)=O)(C3)NC(=O)[C@H](CC(N)=O)NC(=O)[C@H](Cc3ccccc3)NC(=O)[C@H](C)NC(=O)[C@H](C)NC(=O)[C@H](Cc3ccc(O)cc3)NC(=O)[C@H](CC(=O)O)NC1=O)NC(=O)[C@H](CC(C)(C)C)NC(=O)[C@H](CC(=O)O)NC2=O (stereo partly drawn) [I-843, Ac-PL3-Asp-Npg-B5-Asp-Tyr-Ala-Ala-Phe-Asn-PyrS2-3Thi-BztA-His-NH2] | – | 10 (≈ 19.8 µg/mL) | – | – | – | 6.81 | 2.49 | – | – | –
